Results: paper PMC7115582 (European Journal of Medicinal Chemistry, 2018)

What follows are compounds tested on lentiviral pseudoparticles carrying H1-HA and N1-NA (from A/PR/8/34). Conditions: control compounds; MDCK cells; Fig. 3.
Format: cell-based, influenza A virus

Row | SMILES | inhibition of pseudoparticle entry, in words
1 | COC(=O)[C@@H]1NC(=O)[C@@H]2NC(=O)[C@H](NC(=O)[C@@H]3NC(=O)[C@H]4NC(=O)[C@H](NC(=O)[C@H](Nc5c(NCc6ccc(-c7ccccc7)cc6)c(=O)c5=O)c5ccc(O)c(c5)Oc5cc4cc(O)c5C)[C@H](O)c4ccc(cc4)Oc4cc3cc(c4O)Oc3ccc(cc3)[C@H]2O)c2ccc(O)c(c2)-c2c(O)cc(O)cc21 [SA-19] | Strong and dose-dependent inhibition
2 | CCN(CC)CCCC(C)Nc1ccnc2cc(Cl)ccc12 (stereo not shown) [chloroquine] | Strong and dose-dependent inhibition
3 | CC(C)c1ccccc1NCCN1CCCCC1.Cl [Compound 80] | Strong and dose-dependent inhibition
4 | CCc1ccccc1OCCN1CCCCCC1 [Compound 81] | Strong and dose-dependent inhibition
